Patent US12344852B2, “Control of phenotype in plants” (GREENVENUS, LLC, priority 2016, dated 2025)

Columns and labels:
[1] = system: Botrytis cinerea; assay: Ligand inducible disease resistance screening of detached petunia leaves; assay type: in vivo
Description: Botrytis cinerea isolation and inoculation. The plant pathogen was isolated from diseased strawberries displaying typical symptomology. A single spore colony was isolated using standard plant pathology methodologies and the ITSI—5.8S rDNA—ITSII locus was amplified and sequenced to validate its identity. The isolate used is 100% identical to more than 20 previously reported B. cinerea isolates in Genbank. For plant inoculation B. cinerea was grown on V8 Agar media under fluorescent light for 2 weeks until the typical grey mass of aerial spores was visible. A section of the colony was placed into 10 mL of sterile DI water and vortexed vigorously to dislodge spores. The resulting solution was filtered through a 70 micron mesh to yield a homogenous spore solution free of mycelia and agar media. The spore solution was spun down and washed 3× in sterile DI water and quantified using a hemocytometer. The solution was diluted in sterile DI water to a final concentration of 200,000 spores/ml. For petunia inoculations, detached leaves were wounded with a sterile forceps (approximately 0.5 mm abrasion) and the wounded site was inoculated with 10 μL of spore solution (2,000 spores/inoculation site). Three leaves/treatment and three wound sites/leaf were inoculated with spore solution for each assay. […]

[2] = system: IP:FT (ID14) transgenic ft mutant Arabidopsis plants; assay: Induction of flowering in IP:FT (ID14) transgenic ft mutant plants by ligand spray; assay type: in vivo
Description: Briefly, the DNA constructs shown in FIG. 3 were transformed into homozygous ft mutant Arabidopsis by flower dipping method. T1 seeds were harvested and germinated in soil. 5 days old T1 seedlings were sprayed with LIBERTY® 280SL herbecide to kill off non-transgenic plants. Selected transgenic plants were analyzed by Bar-specific quantitative PCR (qPCR) to check transgene copy number. Events with low copy number of the transgenes were grown in growth chambers to evaluate phenotypes. […] Select T1 plants were grown to maturity and seeds were used to generate T2 and T3 progeny plants. Further detailed evaluation of the transgenic lines were done in T2 and T3 generation plants (as described in Example 7).
At day 11, the ID14 plants produced more flowers and pods while the ft mutant plant just started bolting.
T2 seeds were harvested from ID14 T1 plants and several experiments were designed to test if the EcR gene switch is tightly controlling the transgenic FT expression in the absence of the activator ligand, and if the switch can be easily turned on by applying the ligand to express enough FT to induce early flowering. T2 seeds from six independent ID14 lines (three with single copy of the transgene and three—with two copies) were planted along with wild-type Arabidopsis and ft mutant and grown under long day (16 hours) and short day (8 hours) photoperiods. Genotype of these T2 plants: homozygous, heterozygous, and null were assessed by TaqMan qPCR as described in Example 7 with the exception of utilizing only the Bar gene-specific primers and probes Bar-F1/Bar-R1/Bar-T1 and the same PDS endogenous control AtPDS-F1/AtPDS-R1/AtPDS-T1. The T2 plants segregated the transgene as a single gene following the Mendelian inheritance.
The homozygous plants and null segregants that served as isogenic negative controls were subject to treatment with water (as a control) and 2 concentrations of methoxyfenozide: low (250 nM) and high (2.5 μM). Plants were treated in groups of 2 pots with 5 plants in each at short and long day photoperiods. Treatments were administered every other day starting from day 19 (long day) and 25 (short day) after planting and continued for about three weeks until all plants flowered.
ID14 T2 plants were maintained to maturity and T3 seeds were collected for further characterization of a selected single-copy line ID14-50. The homozygous and null segregant T3 plants along with Arabidopsis ft mutant plants were grown for three weeks before starting ligand application. Plants were divided in four groups in which up to twelve individual plants per genotype were counted. Each group was treated with different concentrations of methoxyfenozide (10, 50 and, 250 nM) and one group was mock treated (water). Treatments were applied every other day from day 17 (long day) or 24 (short day) for a period of approximately three weeks or until all plants flowered.
The observation was done over a period of ninety days from the day of planting. In both short day and long day photoperiod, the homozygous T3 ID14-50 plants exposed to ligand started flowering as early as fourteen days before any null plants and ft mutants while the untreated plants flowered at a similar time with null and ft mutant plants as shown in FIG. 18.

[3] = system: FT gene under EcR-based gene switch; assay: FT expression by qRT-PCR over the time-course of induction in ID14-50 plants; assay type: in vivo, Arabidopsis; settings: homozygous ID14-50 T3 plants, all concentrations (10, 50, 250 nM), long and short day photoperiod
Description: FT expression was characterized at five time-points over the time-course of induction. One leaf per plant was collected at time-zero before ligand application corresponding to 17 and 24 days old plants in long and short day photoperiod, at one day after treatment started corresponding to 18 and 25 days old plants, four days after treatment started corresponding to 21 and 28 days old plants, seven days after ligand application started corresponding to 24 and 31 days old plants and, eleven days after treatment started corresponding to 28 and 35 days old plants for RNA extraction using a Qiagen RNA easy kit. First-strand cDNA was synthesized from the total RNA to be used as template for qRT-PCR analysis. qRT-PCR was set-up as previously described for T2 characterization. […] For most homozygous plants FT expression stayed relatively high and to a similar level from day one to day seven post-treatment before going down a little by day eleven post-treatment. For all time points, tissue was collected at the end of a period of induction, right before treatment was re-applied. […] FT expression in mock-treated plants as well as null and mutant treated plants stayed very low for the most part over the eleven days of treatment. In all genotypes, there is a large variation in FT expression among individual plants in the groups of siblings.

`COc1cccc(C(=O)NN(C(=O)c2cc(C)cc(C)c2)C(C)(C)C)c1C` [methoxyfenozide, 3-methoxy-2-methylbenzoic acid 2-(3,5-dimethylbenzoyl)-2-(1,1-dimethylethyl)hydrazide] was tested, and the “disease resistance of Switch-DCL1/DCL2/GUS hairpin line” value ([1]; leaves on 50 uM in 1% phytoagar, inoculated after 3 days, read 7 days after pathogen inoculation) was “ligand induced disease resistance”, the “disease resistance of constitutive DCL-25 (+ control) and non-specific dsRNA line (− control)” value ([1]; presence or absence of 50 uM ligand) was “no change in disease resistance” and the “flowering of non-flowering IP:FT plants after spray” value ([2]; T1 ID14 plants sprayed with ligand) was “induced flowering and allowed for normal seed set”. The “time until treated ID14 plants started bolting” value ([2]; T1 plants not flowering within 3 weeks, 2.5 μM every other day, ft mutant did not) was at most 5 days, the “time after the first application until ID14 plants started to flower” value ([2]; T2 ID14 plants, ft mutant and untreated ID14 plants did not flower) was “Five” and the “flowered earlier than ft mutant plants” value ([2]; homozygous T2 ID14-50 plants, 250 or 2500 nM) was 22 to 30 days. For the same compound, the induction of flowering ([2]; homozygous T2 ID14 plants, 250 nM and 2.5 μM every other day) was “clearly observed in most homozygous plants”, the “started flowering before any null plants and ft mutants” value ([2]; homozygous T3 ID14-50 plants, 10, 50, 250 nM, short day and long day photoperiod) was “fourteen” and the “biomass production (number of rosette leaves as a proxy)” value ([2]; homozygous T3 ID14-50 plants, all ligand concentrations, both photoperiods) was “strong decrease”. For the same compound, the FT expression [3] was “increases as early as one day post-treatment”.
